Measurements: ChEMBL document CHEMBL5678818, “Discovery of potent SOS1 inhibitors that block RAS activation via disruption of the RAS-SOS1 interaction” (Proc Natl Acad Sci U S A, 2019)

Assays:
[1] = target: Serine/threonine-protein kinase RIO2 (Homo sapiens) (UniProt Q9BVS4); assay: Inhibition of RIOK2 (unknown origin) assessed as residual activity at 100 nM by KINOMEscan analysis relative to control
[2] = target: Serine/threonine-protein kinase 25 (Homo sapiens) (UniProt O00506); assay: Inhibition of YSK1 (unknown origin) assessed as residual activity at 100 nM by KINOMEscan analysis relative to control
Serine/threonine-protein kinase 25 (Homo sapiens), sequence (O00506 whole entry, looked up): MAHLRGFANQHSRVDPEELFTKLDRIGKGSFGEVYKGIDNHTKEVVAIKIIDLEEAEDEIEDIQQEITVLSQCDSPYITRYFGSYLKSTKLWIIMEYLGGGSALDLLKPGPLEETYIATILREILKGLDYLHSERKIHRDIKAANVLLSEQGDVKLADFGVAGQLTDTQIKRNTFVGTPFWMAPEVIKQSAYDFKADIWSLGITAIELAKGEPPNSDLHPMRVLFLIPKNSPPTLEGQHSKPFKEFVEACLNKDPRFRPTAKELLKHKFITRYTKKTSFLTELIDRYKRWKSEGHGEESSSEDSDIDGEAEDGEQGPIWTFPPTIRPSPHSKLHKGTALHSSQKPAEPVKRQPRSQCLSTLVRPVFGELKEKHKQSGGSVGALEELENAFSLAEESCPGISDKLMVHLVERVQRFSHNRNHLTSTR

[3] = target: Platelet-derived growth factor receptor beta (Homo sapiens) (UniProt P09619); assay: Inhibition of PDGFRB (unknown origin) assessed as residual activity at 100 nM by KINOMEscan analysis relative to control
Platelet-derived growth factor receptor beta (Homo sapiens), sequence (P09619 whole entry): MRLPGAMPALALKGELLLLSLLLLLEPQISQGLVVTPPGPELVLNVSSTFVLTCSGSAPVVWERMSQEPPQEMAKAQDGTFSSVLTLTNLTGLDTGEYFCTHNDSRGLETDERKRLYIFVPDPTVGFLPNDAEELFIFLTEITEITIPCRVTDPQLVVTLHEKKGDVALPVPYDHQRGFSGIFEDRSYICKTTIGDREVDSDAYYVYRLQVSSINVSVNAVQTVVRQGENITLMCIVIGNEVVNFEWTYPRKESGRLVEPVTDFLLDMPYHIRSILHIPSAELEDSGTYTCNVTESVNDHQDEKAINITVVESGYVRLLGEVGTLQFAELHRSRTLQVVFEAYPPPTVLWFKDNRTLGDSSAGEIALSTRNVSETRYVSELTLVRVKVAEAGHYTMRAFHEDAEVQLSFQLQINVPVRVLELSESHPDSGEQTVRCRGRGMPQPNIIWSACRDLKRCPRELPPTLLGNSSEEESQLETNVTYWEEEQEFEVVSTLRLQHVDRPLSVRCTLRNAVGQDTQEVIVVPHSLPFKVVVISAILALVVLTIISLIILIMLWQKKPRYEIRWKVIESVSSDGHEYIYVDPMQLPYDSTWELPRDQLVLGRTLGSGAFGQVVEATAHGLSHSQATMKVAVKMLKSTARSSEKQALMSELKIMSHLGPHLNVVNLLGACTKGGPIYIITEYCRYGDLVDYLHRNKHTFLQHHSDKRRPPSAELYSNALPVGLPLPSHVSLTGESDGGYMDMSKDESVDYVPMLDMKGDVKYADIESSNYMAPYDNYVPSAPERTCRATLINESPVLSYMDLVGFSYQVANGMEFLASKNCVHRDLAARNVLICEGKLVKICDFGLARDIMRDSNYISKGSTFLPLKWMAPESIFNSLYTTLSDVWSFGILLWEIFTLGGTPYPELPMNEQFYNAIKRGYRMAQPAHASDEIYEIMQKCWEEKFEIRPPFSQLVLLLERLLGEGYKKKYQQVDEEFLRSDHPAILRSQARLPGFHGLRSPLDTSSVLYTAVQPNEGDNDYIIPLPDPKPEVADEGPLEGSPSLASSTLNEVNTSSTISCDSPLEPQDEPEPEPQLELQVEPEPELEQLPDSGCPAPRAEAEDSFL

[4] = target: Calcium/calmodulin-dependent protein kinase type II subunit gamma (Homo sapiens) (UniProt Q13555); assay: Inhibition of CAMK2G (unknown origin) assessed as residual activity at 100 nM by KINOMEscan analysis relative to control
Calcium/calmodulin-dependent protein kinase type II subunit gamma (Homo sapiens), sequence (Q13555 whole entry): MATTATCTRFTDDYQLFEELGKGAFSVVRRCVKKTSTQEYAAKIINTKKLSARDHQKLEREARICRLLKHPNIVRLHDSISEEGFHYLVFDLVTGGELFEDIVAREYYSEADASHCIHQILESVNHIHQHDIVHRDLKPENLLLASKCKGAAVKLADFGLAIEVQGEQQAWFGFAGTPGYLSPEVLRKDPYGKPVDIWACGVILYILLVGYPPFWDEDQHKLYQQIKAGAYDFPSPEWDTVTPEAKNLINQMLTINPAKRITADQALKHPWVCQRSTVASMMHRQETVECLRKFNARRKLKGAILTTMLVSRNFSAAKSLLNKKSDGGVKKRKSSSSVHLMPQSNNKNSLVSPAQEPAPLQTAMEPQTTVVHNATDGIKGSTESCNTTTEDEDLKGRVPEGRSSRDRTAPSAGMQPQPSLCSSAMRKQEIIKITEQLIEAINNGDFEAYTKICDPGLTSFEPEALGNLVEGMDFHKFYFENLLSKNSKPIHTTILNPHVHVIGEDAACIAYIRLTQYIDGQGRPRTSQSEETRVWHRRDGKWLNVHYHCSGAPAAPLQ

[5] = target: T1, NUAK family SNF1-like kinase 1 (Homo sapiens) (UniProt O60285); assay: Inhibition of ARK5 (unknown origin) assessed as residual activity at 100 nM by KINOMEscan analysis relative to control
T1 sequence (whole entry): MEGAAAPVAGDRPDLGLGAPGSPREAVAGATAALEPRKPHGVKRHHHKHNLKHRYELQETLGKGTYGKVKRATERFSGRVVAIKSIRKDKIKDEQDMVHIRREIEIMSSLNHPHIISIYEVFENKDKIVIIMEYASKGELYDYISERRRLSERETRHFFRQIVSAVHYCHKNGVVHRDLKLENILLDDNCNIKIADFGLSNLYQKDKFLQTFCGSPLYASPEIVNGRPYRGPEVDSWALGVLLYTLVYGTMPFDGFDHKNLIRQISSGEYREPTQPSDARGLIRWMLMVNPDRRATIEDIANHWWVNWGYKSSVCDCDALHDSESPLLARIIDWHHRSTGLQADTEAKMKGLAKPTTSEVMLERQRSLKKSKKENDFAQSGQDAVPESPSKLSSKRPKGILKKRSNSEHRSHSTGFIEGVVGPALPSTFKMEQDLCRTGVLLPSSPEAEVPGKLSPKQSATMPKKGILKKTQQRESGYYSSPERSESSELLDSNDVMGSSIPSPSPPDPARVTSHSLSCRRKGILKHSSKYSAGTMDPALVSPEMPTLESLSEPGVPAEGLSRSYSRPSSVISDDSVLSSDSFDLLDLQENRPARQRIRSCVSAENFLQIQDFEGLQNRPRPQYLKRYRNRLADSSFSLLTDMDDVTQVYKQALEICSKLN

[6] = target: T2, Ephrin type-A receptor 1 (Homo sapiens) (UniProt P21709); assay: Inhibition of EPHA1 (unknown origin) assessed as residual activity at 100 nM by KINOMEscan analysis relative to control
T2 sequence (whole entry): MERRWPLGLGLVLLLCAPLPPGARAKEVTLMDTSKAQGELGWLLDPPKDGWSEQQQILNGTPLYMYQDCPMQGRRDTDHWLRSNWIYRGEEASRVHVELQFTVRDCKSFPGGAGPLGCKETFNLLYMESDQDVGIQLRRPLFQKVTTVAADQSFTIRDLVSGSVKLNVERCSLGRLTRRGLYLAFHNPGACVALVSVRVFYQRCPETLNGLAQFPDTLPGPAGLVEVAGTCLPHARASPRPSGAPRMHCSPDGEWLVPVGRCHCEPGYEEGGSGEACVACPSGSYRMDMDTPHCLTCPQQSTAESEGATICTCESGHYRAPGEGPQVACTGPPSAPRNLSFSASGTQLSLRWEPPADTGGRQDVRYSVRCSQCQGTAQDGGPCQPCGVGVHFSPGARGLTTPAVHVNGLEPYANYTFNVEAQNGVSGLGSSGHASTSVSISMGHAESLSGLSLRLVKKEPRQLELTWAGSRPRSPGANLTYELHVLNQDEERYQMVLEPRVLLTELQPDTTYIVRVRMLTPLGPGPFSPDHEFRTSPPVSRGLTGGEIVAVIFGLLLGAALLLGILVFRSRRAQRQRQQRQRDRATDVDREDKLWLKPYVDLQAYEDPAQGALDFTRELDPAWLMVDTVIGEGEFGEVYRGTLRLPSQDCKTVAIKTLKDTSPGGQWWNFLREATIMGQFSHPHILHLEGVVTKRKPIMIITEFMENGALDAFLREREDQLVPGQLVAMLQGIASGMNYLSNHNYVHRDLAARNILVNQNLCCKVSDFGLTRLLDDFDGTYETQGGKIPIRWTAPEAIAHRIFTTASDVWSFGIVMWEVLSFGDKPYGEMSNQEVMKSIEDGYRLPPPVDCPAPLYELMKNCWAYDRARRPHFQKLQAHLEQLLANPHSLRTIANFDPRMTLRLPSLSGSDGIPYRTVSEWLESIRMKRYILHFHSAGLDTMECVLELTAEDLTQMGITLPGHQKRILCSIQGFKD

Serine/threonine-protein kinase RIO2 (Homo sapiens), sequence (Q9BVS4 whole entry, looked up): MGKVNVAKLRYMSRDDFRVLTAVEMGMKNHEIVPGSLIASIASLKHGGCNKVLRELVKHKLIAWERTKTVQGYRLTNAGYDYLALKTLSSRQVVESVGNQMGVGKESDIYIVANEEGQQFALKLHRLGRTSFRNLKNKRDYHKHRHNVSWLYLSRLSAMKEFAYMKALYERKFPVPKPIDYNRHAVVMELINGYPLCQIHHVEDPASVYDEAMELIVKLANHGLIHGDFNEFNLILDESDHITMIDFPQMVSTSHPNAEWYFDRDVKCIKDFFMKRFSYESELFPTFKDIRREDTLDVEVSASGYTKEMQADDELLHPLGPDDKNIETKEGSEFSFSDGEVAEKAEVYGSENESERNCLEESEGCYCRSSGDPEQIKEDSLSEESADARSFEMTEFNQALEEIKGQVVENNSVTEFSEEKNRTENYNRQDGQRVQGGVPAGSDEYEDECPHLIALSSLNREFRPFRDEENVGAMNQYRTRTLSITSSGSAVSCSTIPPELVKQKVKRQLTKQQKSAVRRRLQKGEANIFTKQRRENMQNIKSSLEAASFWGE

COc1cc2ncnc(N[C@H](C)c3cccc4ccccc34)c2cc1OC
Activity [1]: 65% | Activity [2]: 100% | Activity [3]: 100% | Activity [4]: 60% | Activity [5]: 87% | Activity [6]: 75%
